# Data as given in patent US8716530B2, “Facially amphiphilic polyaryl and polyarylalkynyl polymers and oligomers and uses thereof” (The Trustess of the University of Pennsylvania, priority 2004, dated 2014).
# “And” between values parts separate entries of the source, which are not always exact repeats. Equal entries are not always repeated. Where two headings read alike, the source gives them in different places.
# Tests used:
# [1] = tested on: Candida albicans; assay: MIC100, clinical isolates of hospital-acquired pathogens (Table 7); type: cell-based; settings: one table line per isolate, RPMI synthetic medium, in µg/mL
# [2] = tested on: S. aureus and methicillin-resistant S. aureus (MRSA); assay: MIC100, modified NCCLS microbroth dilution (Table 6); type: cell-based; settings: Staphylococcus aureus
# [3] = tested on: E. coli; assay: as above; type: cell-based; settings: Escherichia coli
# [4] = tested on: S. aureus; type: cell-based; settings: S. aureus passaged at 0.5x MIC100; by passage 16 (17 consecutive passages)
# [5] = tested on: Y. pestis; assay: microbe, parasite or virus in culture; type: cell-based; settings: Yersinia pestis, 30 h, read-out: MIC100 Y. pestis (30 hr)
# [6] = tested on: B. anthracis; assay: microbe, parasite or virus in culture; type: cell-based, Bacillus anthracis
# [7] = tested on: E. coli; assay: Modified NCCLS microbroth dilution MIC assay; type: cell-based; settings: Escherichia coli; for MIC: 18 to 20 hours incubation, OD 600 nm
# [8] = tested on: B. subtilis; assay: Modified NCCLS microbroth dilution MIC assay; settings: Bacillus subtilis; for MIC: read-out: B. subtilis MIC
# [9] = tested on: human erythrocytes; assay: Hemolysis of human erythrocytes (HC50); settings: for Hemolysis HC50: one hour incubation, 50% hemoglobin release, Table 1
# [10] = tested on: Aspergillus fumigatus; assay: Antifungal MIC/MFC, NCCLS M38-A; type: cell-based
# Method: (§1) MIC endpoints were determined for A. fumigatus, P. funiculosum, C. globosum and T. virens according to current NCCLS guidelines defined for testing A. fumigatus (NCCLS M38-A, 2002). […] Amphotericin B was included in the screen with C. albicans as a positive control. All MIC testing was done in 96 well microtiter panels using RPMI 1640 (with glutamine and without bicarbonate) broth as a growth media. Incubation was at 35° C., and growth was read at 48, 72, (and for some slow growing fungal species, 96 hours). […] MFC (minimal fungicidal concentrations) endpoints were calculated using a modified methodology based on the NCCLS defined methodology for measuring minimal bactericidal concentrations (MBC). Experimentation to calculate MFCs was undertaken only for those organisms for which an MIC endpoint was satisfactorily calculated. MFCs are defined as the concentration required to reduce the number of viable organisms by at least 90%.
# [11] = tested on: Trichoderma virens; assay: Antifungal MIC/MFC, NCCLS M38-A; type: cell-based
# Method: as §1
# [12] = tested on: Chaetomium globosum; assay: Antifungal MIC/MFC, NCCLS M38-A; type: cell-based
# Method: as §1
# [13] = tested on: Penicillium funiculosum; assay: Antifungal MIC/MFC, NCCLS M38-A; type: cell-based
# Method: as §1
# [14] = tested on: Streptococcus pneumoniae; assay: MIC100, clinical isolates of hospital-acquired pathogens (Table 7); type: cell-based; settings: for mic (MIC100) Streptococcus pneumoniae: clinical isolates, no phenotype given; for mic (MIC100) Streptococcus pneumoniae / mic (MIC100) Streptococcus pneumoniae PEN-R: Mueller Hinton+2-5% lysed horse blood, in µg/mL; for mic (MIC100) Streptococcus pneumoniae ATCC 49619: control strain ATCC 49619; for mic (MIC100) Streptococcus pneumoniae PEN-R: penicillin-resistant clinical isolates
# [15] = tested on: Enterococcus faecalis; assay: as above; type: cell-based; settings: control strain ATCC 29212
# [16] = tested on: Streptococcus pyogenes; assay: as above; type: cell-based; settings: Mueller Hinton+2-5% lysed horse blood, in µg/mL
# [17] = tested on: Haemophilus influenzae; assay: as above; type: cell-based; settings: Mueller Hinton+NAD+yeast extract+hematin
# [18] = concentration reducing viable organisms by at least 90%
smiles,measurement,setting,value
"C[C@@H]1[C@H](O)[C@@H](C)/C=C/C=C/C=C/C=C/C=C/C=C/C=C/[C@H](O[C@@H]2O[C@H](C)[C@@H](O)[C@H](N)[C@@H]2O)C[C@@H]2O[C@](O)(C[C@@H](O)C[C@@H](O)[C@H](O)CC[C@@H](O)C[C@@H](O)CC(=O)O[C@H]1C)C[C@H](O)[C@H]2C(=O)O [AMP B, amphotericin B]",mic (MIC100) Candida albicans,[1],2
"NCC[C@H](O)C(=O)N[C@@H]1C[C@H](N)[C@@H](O[C@H]2O[C@H](CN)[C@@H](O)[C@H](O)[C@H]2O)[C@H](O)[C@H]1O[C@H]1O[C@H](CO)[C@@H](O)[C@H](N)[C@H]1O [Amikacin, amikacin, reference compound]",MIC,"[2]; ATCC 29213 / MRSA, strain ATCC29213 (Table 6), read-out: MIC100 S. aureus ATCC29213",2 µg/mL
same,MIC,"[2]; MRSA, methicillin-resistant S. aureus OC2878, read-out: MIC100 MRSA OC2878",64 µg/mL
same,MIC,"[3]; strain ATCC25922, read-out: MIC100 E. coli ATCC25922",1 µg/mL
same,MIC,"[3]; strain OC2530, read-out: MIC100 E. coli OC2530",2 µg/mL
"O=C(O)c1cn(C2CC2)c2cc(N3CCNCC3)c(F)cc2c1=O [Ciprofloxacin, ciprofloxacin, reference compound]",increase in MIC on serial passage,[4],125 fold
same,MIC,[5],0.0312 µg/mL
same,MIC,"[6]; Bacillus anthracis, 24 h, read-out: MIC100 B. anthracis (24 hr)",0.125 to 0.25 µg/mL
same,Time course of growth inhibition of Bacillus anthracis,[6]; growth recorded at 2 hour intervals over 24 hours (FIG. 3),transient cell growth was observed at early time points
N=C(N)NCCc1cc(Br)cc(C#Cc2cccc(C#Cc3cc(Br)cc(CCNC(=N)N)c3)c2)c1 [Compound 2],MIC90,[7]; read-out: MIC90 E. Coli,1.6 µg/mL
same,MIC,[7],3.2 µg/mL
same,MIC,[8],1.6 µg/mL
same,MIC90,[8]; read-out: MIC90 B. subtilis,1.6 µg/mL
same,Hemolysis HC50,[9]; human erythrocytes,8 µg/mL
same,HC50,"[9]; human erythrocytes, Table 2",8.5 µg/mL
same,Selectivity HC50/MIC E.coli,[9]; ratio of HC50 to E. coli MIC,5.3
NCCNC(=O)c1cc(Br)cc(C#Cc2cccc(C#Cc3cc(Br)cc(C(=O)NCCN)c3)c2)c1 [Compound 4],MIC,[7],50 µg/mL
same,MIC,[8],25 µg/mL
same,Hemolysis HC50,[9]; human erythrocytes,12.5 µg/mL
CCCCCOc1c(I)cc(CN)cc1C#Cc1cccc(C#Cc2cc(CN)cc(I)c2OCCCCC)c1 [Compound 5],MIC,[7],25 µg/mL
same,MIC,[8],100 µg/mL
same,Hemolysis HC50,[9]; human erythrocytes,<12.5 µg/mL
CCCCCOc1c(I)cc(CNC(=N)N)cc1C#Cc1cccc(C#Cc2cc(CNC(=N)N)cc(I)c2OCCCCC)c1 [Compound 6],MIC,[7],6.4 µg/mL
same,MIC,[8],3.2 µg/mL
same,Hemolysis HC50,[9]; human erythrocytes,5 µg/mL
"OC(Cn1cncn1)(Cn1cncn1)c1ccc(F)cc1F [Fluconazole, reference compound]",MIC Aspergillus fumigatus,"[10]; RPMI 1640, 35° C.",>32/>32
same,MFC Aspergillus fumigatus,[10]; [18],>32/>32
same,MIC Trichoderma virens,"[11]; RPMI 1640, 35° C.",>128/>128
same,MFC Trichoderma virens,[11]; [18],>128/>128
same,MIC Chaetomium globosum,"[12]; RPMI 1640, 35° C.",0.25/0.25
same,MFC Chaetomium globosum,[12]; [18],0.25/0.25
same,MIC Penicillium funiculosum,"[13]; RPMI 1640, 35° C.",4 µg/mL
same,MFC Penicillium funiculosum,[13]; [18],> 32 µg/mL
"C[C@H]1COc2c(N3CCN(C)CC3)c(F)cc3c(=O)c(C(=O)O)cn1c23 [LEVOFLOX, levofloxacin]",mic (MIC100) Streptococcus pneumoniae,[14],1 and 0.5
same,mic (MIC100) Streptococcus pneumoniae ATCC 49619,[14],0.5 µg/mL
same,mic (MIC100) Streptococcus pneumoniae PEN-R,[14],0.5
same,mic (MIC100) Enterococcus faecalis ATCC 29212,[15],0.5 µg/mL
same,mic (MIC100) Streptococcus pyogenes,[16],0.25 and 0.5
same,mic (MIC100) Candida albicans,[1],>8
same,mic (MIC100) Haemophilus influenzae,[17],≦0.03
"CC(=O)NC[C@H]1CN(c2ccc(N3CCOCC3)c(F)c2)C(=O)O1 [LINEZOLID, linezolid]",mic (MIC100) Streptococcus pneumoniae,[14],1
same,mic (MIC100) Streptococcus pneumoniae ATCC 49619,[14],1 µg/mL
same,mic (MIC100) Streptococcus pneumoniae PEN-R,[14],0.5 and 1
same,mic (MIC100) Enterococcus faecalis ATCC 29212,[15],2 µg/mL
same,mic (MIC100) Streptococcus pyogenes,[16],1
same,mic (MIC100) Candida albicans,[1],>8
same,mic (MIC100) Haemophilus influenzae,[17]; in µg/mL,>8 and 8
"CN[C@H](CC(C)C)C(=O)N[C@H]1C(=O)N[C@@H](CC(N)=O)C(=O)N[C@H]2C(=O)N[C@H]3C(=O)N[C@H](C(=O)N[C@H](C(=O)O)c4cc(O)cc(O)c4-c4cc3ccc4O)[C@H](O)c3ccc(c(Cl)c3)Oc3cc2cc(c3O[C@@H]2O[C@H](CO)[C@@H](O)[C@H](O)[C@H]2O[C@H]2C[C@](C)(N)[C@H](O)[C@H](C)O2)Oc2ccc(cc2Cl)[C@H]1O [VANCO, vancomycin]",mic (MIC100) Streptococcus pneumoniae,[14],0.5
same,mic (MIC100) Streptococcus pneumoniae ATCC 49619,[14],0.5 µg/mL
same,mic (MIC100) Streptococcus pneumoniae PEN-R,[14],0.5 and 1
same,mic (MIC100) Enterococcus faecalis ATCC 29212,[15],4 µg/mL
same,mic (MIC100) Streptococcus pyogenes,[16],0.5
same,mic (MIC100) Candida albicans,[1],>32
same,mic (MIC100) Haemophilus influenzae,[17]; in µg/mL,>32
CCn1cc(C(=O)O)c(=O)c2cc(F)c(N3CCNCC3)cc21 [norfloxacin],increase in MIC on serial passage,[4],160 fold
